Tests used:
DhaA.WT = DhaA.WT (Rhodococcus rhodochrous, UniProt P0A3G2); test: Binding of labeled chloroalkane substrates to wild type DhaA
Source text: (§1) Carboxytetramethylrhodamine-C10H21NO2—Cl, carboxyfluorescein-C10H21NO2—Cl, and 5-carboxy-X-rhodamine-C10H21NO2—Cl bound to DhaA.H272F but not to DhaA.WT. Biotin-C10H21NO2—Cl bound to DhaA.H272F but not to DhaA.WT.

DhaA.H272F = DhaA.H272F (Rhodococcus rhodochrous, UniProt P0A3G2, H272F); test: Binding of labeled chloroalkane substrates to DhaA.H272F
Source text: as §1

[1] = target: cyclic AMP dependent protein kinase catalytic subunit (Homo sapiens, UniProt P17612); conditions: cited from earlier work
streptavidin = streptavidin (Streptomyces avidinii, UniProt P22629); conditions: surface plasmon resonance; cited from earlier work
[2] = target: catalytic subunit of protein kinase A (Homo sapiens, UniProt P17612); conditions: cited from earlier work

In the case of `O=C(CCCC[C@@H]1SC[C@@H]2NC(=O)N[C@@H]21)NCCOCCOCCCCCCCl` [Biotin-C10H21NO2—Cl], the “binding to DhaA.WT” value (DhaA.WT) is reported as “not” and the “binding to DhaA.H272F” value (DhaA.H272F) is reported as “bound”.
With 5-carboxy-X-rhodamine-C10H21NO2—Cl the “binding to DhaA.WT” value (DhaA.WT) was “not” and the “binding to DhaA.H272F” value (DhaA.H272F) was “bound”.
For LRRASLG, the “reduction of activity on addition of kinase catalytic subunit” value [1] is given as 30%.
With `O=C(NCCOCCOCCCCCCCl)c1ccc(-c2c3ccc(=O)cc-3oc3cc(O)ccc23)c(C(=O)O)c1` [carboxyfluorescein-C10H21NO2—Cl] the “binding to DhaA.WT” value (DhaA.WT) was “not” and the “binding to DhaA.H272F” value (DhaA.H272F) was “bound”.
In the case of `O=C(O)CCCC[C@@H]1SC[C@@H]2NC(=O)N[C@@H]21` [biotin], the “on-rate for biotin-streptavidin interaction” value (streptavidin) is listed as 5e+06 M⁻¹ s⁻¹.
In the case of “RRFS: Photinus pyralis luciferase with valine 217 mutated to arginine generating site RRFS (Sala-Newby et al.)”, the “decrease of activity when phosphorylated” value [2] is given as “up to 80%”.
In the case of “Carboxytetramethylrhodamine-C10H21NO2—Cl”, the “binding to DhaA.WT” value (DhaA.WT) is reported as “not” and the “binding to DhaA.H272F” value (DhaA.H272F) is reported as “bound”.

Source: patent US20090253131A1, “HYBRID FUSION REPORTER AND USES THEREOF” (Promega Corporation, priority 2007, published 2009)
